Ten compounds from US11760733B2, “Small molecule regulators of mitochondrial fusion and methods of use thereof” (Washington University, priority 2017, dated 2023) can be followed below.

“Also recorded” adds a separate entry of the source.

In one series the target is T1, Mfn2 HR2 target peptide (Homo sapiens, UniProt O95140).
T1 construct: Gly linker (GGGG after the His tag)
T1 sequence (O95140 with tags, fused parts or gaps limits assumed): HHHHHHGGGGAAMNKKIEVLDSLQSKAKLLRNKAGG
In words: HR1 peptide-HR2 target binding assay. Particulars: in vitro binding assay devoid of cellular kinases. From the text: The Mfn-derived fusion-promoting and -inhibiting mini-peptides (simulated to obtain the chemical Mfn agonists in TABLE 1 and TABLE 2) were modified from amino acid heptad repeats (HR) in the HR1 domain and predicted to interact with their counterparts in the carboxyl terminus HR2 domain within the Mfn stalk region (see e.g., FIG. 1, top panel). A high-throughput binding assay was designed whereby the target HR2 peptide sequences, modified to include amino terminal 6×His tags and Gly linkers, were bonded to Ni-chelate resin (20 μg/ml) and used as immobilized “receptor” for amino-FITC-tagged Mfn2 374-384 (agonist ligand) in which the Ser analogous to Ser378 was replaced with Asp to confer the negative charge essential for activity. For antagonist studies the ligand was amino-FITC-tagged Mfn2 406-418. The FITC peptide ligands are suspended at 1 mM in 30% DMSO, 70% water (to minimize spontaneous aggregation) and diluted into binding buffer (de-ionized water) to a final concentration of 25 μM in the presence or absence of competing compound. Dose-dependent loss of resin-bound FITC signal (485 nm excitation/538 nm emission) measured in a 96 well spectrofluorometer represents binding of compound to its HR2 target (see e.g., FIG. 10, FIG. 11). Either the ligand peptide or the receptor peptide can be modified to represent mutations, variations, or posttranslational modifications of Mfn2. […]
Target HR2 peptide sequence modified to include amino terminal 6×His tags and Gly linkers, were bonded to Ni-NTA resin (4.4 μg/ml) (Quiagen) and used as immobilized “receptor” for amino-FITC-tagged Mfn2 374-384 (ligand) in which the Ser analogous to Ser378 was replaced with Asp to confer the negative charge essential for activity. […] Resin-bound FITC signal (485 nm excitation/538 nm emission) measured in a 96 well spectrofluorometer (Spectramax M5e, Molecular Devices) represented binding to HR2 target. Competition binding isotherms were plotted and IC50 values calculated using Prism 7 (Graph Pad).

For the next series, the system named is Mfn2 null MEFs. In words: Mitochondrial elongation (aspect ratio) fusogenicity assay. Type of series: cell-based, mouse. The text has this: A cultured murine embryonic fibroblast assay system was used in which mitochondrial elongation (an increase in aspect ratio) reflects enhanced mitochondrial fusion.
A pharmacophore model was generated based on the interactions of HR1 and HR2 domains in the calculated structural model of Mfn2 in the closed conformation. The key features included hydrophobic interactions involving Mfn2 HR1: Val372 and Met376, and aromatic interactions and hydrogen bonding involving Mfn2 HR1 His380. […] A library comprising ˜14 million commercially available compounds was prepared in silico and evaluated using PHASE to fit these criteria. Top ranked hits were clustered, and filtered based on pharmacological properties using Qikprop. The top 55 (see TABLE 4) commercially available small molecules conforming to the model were selected for functional screening and purchased in 1 mg aliquots. Each compound was dissolved to a stock concentration of 10 mM in DMSO and applied to Mfn2 null MEFs overnight at a final concentration of 1 mM. […] Images were acquired by confocal microscopy. Each compound was scored for fusogenicity (see e.g., FIG. 24A) and % cell death (see e.g., FIG. 24B).
Wild-type MEFs were prepared from E10.5 c57/bl6 mouse embryos. […] MEFs were subcultured in DMEM (4.5 g/L glucose) plus 10% fetal bovine serum, 1× nonessential amino acids, 2 mM L-glutamine, 100U/ml penicillin and 100 ug/ml streptomycin.
Cells were excited with 408 nm (Hoechst), […] (MitoTracker Green and Calcein AM, GFP), or 637 nm (TMRE, MitoTracker Orange, Ethidium homodimer-1, and AF594-Dextran) laser diodes. For mitochondrial elongation studies mitochondrial aspect ratio (long axis/short axis) was calculated using automated edge detection and Image J software. Mitochondrial depolarization was calculated as % of green mitochondria visualized on MitoTracker Green and TMRE merged images, expressed as green/(green+yellow mitochondria)×100.

A short description of series [1]: Liver microsome stability. The format is in vitro ADME, human. The protocol:
(§1) Plasma protein binding was measured using equilibrium dialysis; % bound=(1−[free compound in dialysate]/[total compound in retentate])×100. Plasma stability of […] compound in clarified freeze-thawed plasma was assessed by LC-MS/MS of supernatants after protein precipitation; 120 min data are reported for studies including 0, 10, 30, 60, and 120 min. Microsome stability of […] compound in liver microsomes (0.5 mg/ml) after 0, 5, 10, 20, 30, 60 min. incubation was assessed by LC/MS/MS of reaction extracts.

The test system of series [2] is Mfn1/Mfn2 double null MEFs. In words: Mitochondrial elongation in Mfn1/Mfn2 double null MEFs. Type of series: cell-based, mouse.
Series [3] has as its system MFN2 Asp378 and Ala378 mutants. In words: Mitochondrial fusion in cells expressing MFN2 Ser378 mutants. The format is cell-based, human. Particulars: phosphomimic Asp378 vs nonphosphorylatable Ala378. The text has this: On the basis of fluorescence resonance energy transfer (FRET) analysis of MFN2 labeled at the N and C termini, mitofusin agonists promoted an open MFN2 conformation favoring mitochondrial fusion, with a rank order paralleling that for HR2 binding and mitochondrial fusion (see e.g., FIG. 11G; compare to FIG. 11B and FIG. 11C), supporting allosteric activation.
Human Mfn2 Ser378 was mutated to Ala or Asp by site-directed mutagenesis using the QuikChange Lightning kit (Agilent Technologies Inc.) and primers: […]
Mfn2 and its mutants were sub-cloned into adenoviral vector Type 5 (dE1/E3) with RGD-fiber modification (Vector Biolabs) using BamHI/XhoI. All constructs were verified by Sanger DNA sequencing. Adeno-viral PINK1 was purchased from Vector Biolabs.

A short description of series [4]: Parallel artificial membrane permeability assay (PAMPA). The format is in vitro ADME. (In general: PAMPA measures passive passage across an artificial lipid membrane.)
The target of the next series is P-gp/MDR1 (Homo sapiens, UniProt P08183). The series can be described thus: P-gp/MDR1 transport. Type of series: in vitro ADME.
P-gp/MDR1, sequence (P08183 whole entry): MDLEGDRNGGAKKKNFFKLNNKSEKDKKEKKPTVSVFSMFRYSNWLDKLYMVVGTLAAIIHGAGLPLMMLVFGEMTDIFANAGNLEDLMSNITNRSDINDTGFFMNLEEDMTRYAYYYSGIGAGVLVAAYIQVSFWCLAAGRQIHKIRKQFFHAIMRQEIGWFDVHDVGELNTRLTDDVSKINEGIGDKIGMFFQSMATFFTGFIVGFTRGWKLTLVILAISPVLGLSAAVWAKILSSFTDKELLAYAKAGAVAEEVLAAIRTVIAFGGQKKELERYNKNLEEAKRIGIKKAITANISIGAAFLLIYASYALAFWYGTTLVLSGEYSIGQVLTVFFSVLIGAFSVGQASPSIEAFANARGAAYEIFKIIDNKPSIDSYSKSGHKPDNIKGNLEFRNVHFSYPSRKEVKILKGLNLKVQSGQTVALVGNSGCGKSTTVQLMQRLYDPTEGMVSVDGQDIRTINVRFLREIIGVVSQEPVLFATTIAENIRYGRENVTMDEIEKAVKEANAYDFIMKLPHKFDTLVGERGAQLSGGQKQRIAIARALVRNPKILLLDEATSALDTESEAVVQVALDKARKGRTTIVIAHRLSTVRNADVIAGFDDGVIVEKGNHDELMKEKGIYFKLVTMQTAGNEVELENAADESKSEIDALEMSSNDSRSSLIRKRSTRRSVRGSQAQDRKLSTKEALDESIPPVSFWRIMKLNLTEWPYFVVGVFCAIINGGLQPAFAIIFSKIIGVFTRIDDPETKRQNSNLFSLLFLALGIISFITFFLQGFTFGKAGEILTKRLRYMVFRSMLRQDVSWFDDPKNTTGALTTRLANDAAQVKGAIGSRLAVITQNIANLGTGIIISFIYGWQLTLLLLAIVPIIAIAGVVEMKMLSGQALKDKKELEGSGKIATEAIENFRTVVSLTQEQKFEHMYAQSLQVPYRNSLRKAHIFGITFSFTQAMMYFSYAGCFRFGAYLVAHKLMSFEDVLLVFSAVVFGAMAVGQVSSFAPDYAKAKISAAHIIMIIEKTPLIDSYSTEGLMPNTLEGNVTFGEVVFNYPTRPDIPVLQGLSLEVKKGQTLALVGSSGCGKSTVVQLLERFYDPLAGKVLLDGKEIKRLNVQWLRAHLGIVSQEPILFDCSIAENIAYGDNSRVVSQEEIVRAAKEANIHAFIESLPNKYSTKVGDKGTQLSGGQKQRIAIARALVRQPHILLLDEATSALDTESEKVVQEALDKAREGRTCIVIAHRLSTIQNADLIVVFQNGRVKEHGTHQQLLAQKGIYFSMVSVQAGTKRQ
Series [5] relates to MFN2 T105M sciatic nerves. In words: Sciatic nerve axonal mitochondrial motility, agonist applied to nerve. As to conditions: MFN2 T105M mouse sciatic nerve. Here is the method: Sciatic nerves of 12-18 week old male or female MFN2 T105M mice were removed en bloc with the lumbar spine and axotomy at the tibial nerve, stained with TMEM ([…]) for 30 minutes in prewarmed Neurobasal Medium without phenol red (Thermo Fisher Scientific) at room temperature, washed, and maintained on the stage of a Nikon A1Rsi Confocal Microscope at 37 degrees C. for time-lapse confocal studies. Images were acquired with a 40× oil immersion objective at 1 frame every 5 or 10 seconds for sequential 10 minute periods. Mitofusin agonist chimera B-A/I was added after the first 10 minute imaging period (final concentrations of […]) and nerve axons imaged for another 40 minutes. Because there was no difference in mitochondrial trafficking or response to mitofusin agonist between male and female mice, the data were combined.

Series [6] in a line: Solubility in 50 mM phosphate buffer pH 7.4. Type of series: physicochemical.
The next series is described as follows: Plasma stability. Type of series: in vitro ADME. The protocol: as §1
A further series relates to CMT2A MFN2 T105M mice. In words: In vivo sciatic nerve mitochondrial motility in CMT2A mice. Also noted: species or system mouse. As to conditions: IM 2 mg/kg twice, assessed 4 hours later. Here is the method:
Sciatic nerve mitochondrial motility was measured 4 hours later. Results described in FIG. 58 are for 2 CMT2A mice per group.

Series [7] can be described thus: Solubility of library compounds in DMSO stock. The format is physicochemical. Particulars: stock concentration of 10 mM in DMSO. The protocol:
A pharmacophore model was generated based on the interactions of HR1 and HR2 domains in the calculated structural model of Mfn2 in the closed conformation. The key features included hydrophobic interactions involving Mfn2 HR1: Val372 and Met376, and aromatic interactions and hydrogen bonding involving Mfn2 HR1 His380. […] A library comprising ˜14 million commercially available compounds was prepared in silico and evaluated using PHASE to fit these criteria. Top ranked hits were clustered, and filtered based on pharmacological properties using Qikprop. The top 55 (see TABLE 4) commercially available small molecules conforming to the model were selected for functional screening and purchased in 1 mg aliquots. Each compound was dissolved to a stock concentration of 10 mM in DMSO and applied to Mfn2 null MEFs overnight at a final concentration of […]. Eleven of the library members were not soluble in DMSO at the required concentration. The 44 fully soluble compounds were screened in groups of 6 at a time for cytotoxicity (calcein AM/ethidium homodimer staining; ThermoFisher LIVE/DEAD Assay cat # L3224) and fusogenicity (increase in mitochondrial aspect ratio; MitoTracker Orange staining) compared to cells treated overnight with […] of the parent HR1 367-384 mitofusin agonist peptide (positive control) or vehicle (DMSO). Images were acquired by confocal microscopy. Each compound was scored for fusogenicity (see e.g., FIG. 24A) and % cell death (see e.g., FIG. 24B). Pharmacophore model fit generally correlated with actual fusogenic activity (Pearson correlation coefficient r=0.214; see e.g., FIG. 24A, inset; TABLE 4).

For the compound “Ser^378 minipeptide: "smallest fusion promoting minipeptide (residues 374 to 384)" of MFN2 HR1, with unsubstituted Ser^378 (LIMDSLHMAAR; UniProt O95140 374-384, looked up, fragment)”, the “binding of minipeptide to HR2 interacting domain” value in the series with Mfn2 HR2 target peptide is “did not”.
In the case of `Cn1c(SCC(=O)Nc2sc3c(c2C(N)=O)CCC3)nnc1-c1ccccc1` [1-61, 2-{2-[(4-methyl-5-phenyl-4H-1,2,4-triazol-3-yl)sulfanyl]acetamido}-4H,5H,6H-cyclopenta[b]thiophene-3-carboxamide], the “potency relative to other compounds, in words” value in the series with Mfn2 null MEFs was “more potent”. Besides, the “liver microsome stability, in words” value in series [1] is listed as “greater resistance to liver microsomal degradation”.
Consider `CCn1c(SCC(=O)Nc2sc3c(c2C(N)=O)CCC3)nnc1C1CC1` [1-G11, 2-{2-[(5-cyclopropyl-4-ethyl-4H-1,2,4-triazol-3-yl)sulfanyl]acetamido}-4H,5H,6H-cyclopenta[b]thiophene-3-carboxamide], for which the “potency relative to other compounds, in words” value in the series on Mfn2 null MEFs is listed as “more potent”. The “liver microsome stability, in words” value in [1] was “greater resistance to liver microsomal degradation”.
With `CC1CCCCC1NC(=O)NCCSCc1ccccc1` (stereo not drawn) [compound A, 1-[2-(benzylsulfanyl)ethyl]-3-(2-methylcyclohexyl)urea], in the series with Mfn2 null MEFs, the “fusogenic activity (mitochondrial elongation), in words” value is recorded as “induced mitochondrial elongation”. In addition, the “mitochondrial elongation in absence of both mitofusins” value in series [2] is given as “did not occur”. For the same compound, the “selectivity of fusogenic effect for MFN2 Ser378 mutants” value in series [3] is “specific for the Asp^378 mutant”.
“Ala^378 minipeptide: MFN2 374-384 minipeptide in which "Ser^378 was substituted (with Ala, Cys, Asn or Gly)": the Ala variant (LIMDALHMAAR; UniProt O95140 374-384, looked up, variant S378A)”: in the series with Mfn2 HR2 target peptide, the “binding of minipeptide to HR2 interacting domain” value is on record as “did not”.
Take `CCn1c(CCCNC(=O)NC2CCOCC2)nnc1C1CC1` [Mitolityn-4, 1-(3-(5-cyclopropyl-4-ethyl-4H-1,2,4-triazol-3-yl)propyl)-3-(tetrahydro-2H-pyran-4-yl)urea]: the “potency relative to other compounds, in words” value with Mfn2 null MEFs was “highest potency”. Moreover, the “liver microsome stability, in words” value in [1] is given as “stability in the liver microsome assay”. Further, the “passive diffusion across lipid-infused artificial membrane (PAMPA), in words” value in series [4] is “no passive diffusion across lipid membrane”. Also, at P-gp/MDR1, the “P-gp/MDR1 transport, in words” value was “no reverse transport by P-gp”.
For the compound `CC1CCCCC1NC(=O)NCCSc1nnc(C2CC2)n1-c1ccccc1` (stereo not drawn) [Regeneurin-S], in series [5], the “sciatic nerve axonal mitochondrial motility” value is recorded as “rapidly correct mitochondrial dysmotility”. Besides, the “solubility, in words” value in series [6] was “soluble”. Besides, the “plasma stability, in words” value in “Plasma stability” is reported as “stable in plasma”. Moreover, the “liver microsome stability, in words” value in [1] is on record as “rapid degradation; also recorded: rapidly degraded by liver microsomes”.
On to `O=C(NCCCc1nnc(C2CC2)n1-c1ccccc1)NC1CCOCC1` [Regeneurin-C/O, 1-(3-(5-cyclopropyl-4-phenyl-4H-1,2,4-triazol-3-yl)propyl)-3-(tetrahydro-2H-pyran-4-yl)urea], for which, in the series on CMT2A MFN2 T105M mice, the “sciatic nerve axon mitochondrial motility in vivo” value is on record as “corrects CMT2A neuronal mitochondrial dymotility in vivo; also recorded: reverses the characteristic mitochondrial immobility in sciatic nerve axons”.
Take `Cc1ccc(CSCCNC(=O)C2CCN(c3ccc4nnc(C(F)(F)F)n4n3)CC2)cc1` [N-(2-{[(4-methylphenyl)methyl]sulfanyl}ethyl)-1-[3-(trifluoromethyl)-[1,2,4]triazolo[4,3-b]pyridazin-6-yl]piperidine-4-carboxamide]: the “Solubility in DMSO” value in series [7] is “Insoluble”.
For `Cn1c(CCCNC(=O)NC2CCOCC2)nnc1C1CC1` [Mitolityn-6, 1-(3-(5-cyclopropyl-4-methyl-4H-1,2,4-triazol-3-yl)propyl)-3-(tetrahydro-2H-pyran-4-yl)urea], the “potency relative to other compounds, in words” value with Mfn2 null MEFs is given as “highest potency”. Besides, the “liver microsome stability, in words” value in series [1] is recorded as “stability in the liver microsome assay”.
